Patent publication US12569467B2, “Small molecules that treat or prevent viral infections” (priority 2022, dated 2026)

Tested on: SARS-CoV-2 Spike protein pseudotyped lentiviral particles
Experiment: microbe, parasite or virus in culture
Format: cell-based
Settings: Severe acute respiratory syndrome coronavirus 2, HEK293, read-out: half-maximal effective concentration (EC50), neutralization of SARS-CoV2 infection

O=C1Nc2ccccc2/C1=C\c1ccc(-c2cc(C(F)(F)F)cc(C(F)(F)F)c2)o1 [CD04872SC, 3-({5-[3,5-di(trifluoromethyl)phenyl]-2-furyl}methylidene)indolin-2-one]
EC50: 248 µM
